Laboratory results as given in publication PMC12643529 (ACS Infectious Diseases, 2025).

How the values were obtained:
HeLa cells = test: alamarBlue antiproliferative assay, HeLa; assay type: cell-based, human; conditions: for IC50: Homo sapiens, HeLa, 72 h, alamarBlue; for selectivity index (SI) HeLa: SI = IC50 MRC-5/IC50 HeLa
[1] = test system: bloodstream form of T. brucei; test: alamarBlue (resazurin) antitrypanosomal assay; assay type: cell-based, Trypanosoma brucei; conditions: for selectivity index (SI) T. brucei: SI = IC50 MRC-5/IC50 T. brucei (resazurin assay); for IC50: Trypanosoma brucei, bloodstream form, 72 h, alamarBlue/resazurin, error as σ
[2] = test system: promastigote form of L. major; test: MTT-based antileishmanial assay, promastigotes; assay type: cell-based, Leishmania major; conditions: for IC50: Leishmania major, promastigotes, 72 h, MTT, error as σ; for selectivity index (SI) L. major: SI = IC50 MRC-5/IC50 L. major promastigotes
Procedure: The antileishmanial activity of the compounds against the promastigote form of L. major, the […] was determined using an MTT-based assay (Sigma-Aldrich). Stock solutions of the compounds were prepared in DMSO with the final DMSO percentage in each well maintained below 1%. 4 × 10^6 parasites per mL were incubated at 28 °C in 96-well plates (50 μL/well) either alone or in the presence of increasing concentrations of compounds DMSO for 72 h. After the incubation period, 10 μL of MTT (5 mg/mL) was added to each well, and the parasites were incubated for 4 h at 28 °C. Subsequently, cell lysis was performed using 50 μL/well of 20% SDS. […] Data were presented as the average of at least three independent measurements, each conducted under triplicate conditions. […] “single marker” […] S7

HT-29 cells = test: alamarBlue antiproliferative assay, HT-29; assay type: cell-based, human; conditions: for IC50: Homo sapiens, HT-29, 72 h, alamarBlue; for selectivity index (SI) HT-29: SI = IC50 MRC-5/IC50 HT-29
MRC-5 cells = test: alamarBlue cytotoxicity assay, MRC-5; assay type: cell-based; conditions: MRC5, human lung fibroblasts, 72 h
[3] = test system: F21T K+ (human telomeric G-quadruplex, potassium buffer); assay type: binding; conditions: ligand 10 μM, oligonucleotide 200 nM, 10 mM KCl
[4] = test system: FMycT (c-Myc promoter G4); test: FRET melting assay, FMycT; assay type: binding; conditions: ligand 10 μM, oligonucleotide 200 nM, 1 mM KCl
[5] = test system: Fmt6363T (human mitochondrial G-quadruplex); test: FRET melting assay, Fmt6363T; assay type: binding; conditions: ligand 10 μM, oligonucleotide 200 nM, 10 mM KCl
[6] = test system: F21T Na+ (human telomeric G-quadruplex, sodium buffer); assay type: binding; conditions: ligand 10 μM, oligonucleotide 200 nM, 100 mM NaCl
[7] = test system: FEbr1T (T. brucei G-quadruplex); test: FRET melting assay, FEbr1T; assay type: binding; conditions: ligand 10 μM, oligonucleotide 200 nM, 10 mM KCl
[8] = test system: F10T (hairpin duplex DNA); assay type: binding; conditions: ligand 10 μM, oligonucleotide 200 nM, 10 mM KCl

Cn1cccc1/C=C/c1sc2ccccc2[n+]1C.[I-] [compound 2e]
IC50 (HeLa cells): 78000 ± 8260 nM | selectivity index (SI) HeLa (HeLa cells): 0.12 | selectivity index (SI) T. brucei [1]: 4.1 | IC50 [1]: 2290 ± 310 nM | IC50 [2]: 240 ± 29 nM | selectivity index (SI) L. major [2]: 39.6 | IC50 (HT-29 cells): 76400 ± 1440 nM | selectivity index (SI) HT-29 (HT-29 cells): 0.12 | IC50 (MRC-5 cells): 9400 ± 1060 nM

C[n+]1c(/C=C/c2cc3c4c(c2)CCCN4CCC3)sc2ccccc21.[I-] [compound 2h]
IC50 (HeLa cells): 840 ± 10 nM | selectivity index (SI) HeLa (HeLa cells): 0.09 | IC50 [1]: 0.26 ± 0.17 nM | IC50 (HT-29 cells): 1000 ± 160 nM | selectivity index (SI) HT-29 (HT-29 cells): 0.08 | ΔTm F21T K+ [3]: 16.9 °C | ΔTm FMycT [4]: 12.6 ± 0.9 °C | ΔTm Fmt6363T [5]: 15.0 ± 0.4 °C | ΔTm F21T Na+ [6]: 9.4 ± 0.3 °C | ΔTm FEbr1T [7]: 14.1 °C | ΔTm F10T [8]: 0.9 ± 0.4 °C

C[n+]1c(/C=C/c2ccc(N(c3ccccc3)c3ccccc3)cc2)sc2ccccc21.[I-] [compound 2c]
IC50 (HeLa cells): 8890 ± 1590 nM | selectivity index (SI) HeLa (HeLa cells): 0.58 | IC50 [1]: 340 ± 130 nM | IC50 (HT-29 cells): 8910 ± 880 nM | selectivity index (SI) HT-29 (HT-29 cells): 0.58 | ΔTm F21T K+ [3]: 12.7 ± 0.4 °C | ΔTm FMycT [4]: 8.6 ± 1.0 °C | ΔTm Fmt6363T [5]: 10.2 ± 0.5 °C | ΔTm F21T Na+ [6]: 9.4 ± 0.5 °C | ΔTm FEbr1T [7]: 13.5 °C | ΔTm F10T [8]: 0.7 ± 0.1 °C

C[n+]1c(/C=C/c2ccccc2)sc2ccccc21.[I-] [compound 2a]
selectivity index (SI) T. brucei [1]: 5.5 | IC50 [1]: 370 ± 180 nM | IC50 [2]: 480 ± 110 nM | selectivity index (SI) L. major [2]: 4.2 | IC50 (MRC-5 cells): 2020 ± 120 nM

CSc1ccc(OCc2ncc([N+](=O)[O-])n2C)cc1 [fexinidazole, reference compound]
IC50 [1]: 880 ± 20 nM

C[n+]1c(/C=C/c2ccc(-c3ccc(N(c4ccccc4)c4ccccc4)cc3)s2)sc2ccccc21 [compound 2i]
selectivity index (SI) T. brucei [1]: 2.12 | IC50 [1]: 1830 ± 60 nM | IC50 [2]: 45 ± 12 nM | selectivity index (SI) L. major [2]: 86.2 | IC50 (MRC-5 cells): 3880 ± 170 nM

Cc1ccc(C(=O)Nc2ccc(S(=O)(=O)O)c3cc(S(=O)(=O)O)cc(S(=O)(=O)O)c23)cc1NC(=O)c1cccc(NC(=O)Nc2cccc(C(=O)Nc3cc(C(=O)Nc4ccc(S(=O)(=O)O)c5cc(S(=O)(=O)O)cc(S(=O)(=O)O)c45)ccc3C)c2)c1 [suramin, reference compound]
IC50 [1]: 4.2 ± 0.3 nM

Cn1cccc1-c1ccc(/C=C/c2sc3ccccc3[n+]2C)s1 [compound 2f]
selectivity index (SI) T. brucei [1]: 6.0 | IC50 [1]: 610 ± 45 nM | IC50 [2]: 610 ± 92 nM | selectivity index (SI) L. major [2]: 6.0 | IC50 (MRC-5 cells): 3680 ± 170 nM
